Reference: PubChem BioAssay AID252 (DTP/NCI, 2004)
Values joined by “and” are separate entries in the source; they are usually repeats but may differ in a detail not shown here. Identical values can stand only once. Inconclusive results and toxic doses are left out.

Test system: BDF1 mice, intracerebral L1210 leukemia, survival T/C
Experiment: NCI In Vivo Anticancer Drug Screen. Data for tumor model L1210 Leukemia (intracerebral) in B6D2F1 (BDF1) mice
Conditions: higher = longer survival
Outline: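 Tumour was transplanted, animals received compound or vehicle, then survival in each group was measured and treated divided by control.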

[1] = endpoint: mean survival time, dose: 15.0 mg/kg/injection, schedule: Q01DX001 (ip), vehicle: other
[2] = endpoint: mean survival time, dose: 0.5 mg/kg/injection, schedule: Q01DX009 (ip), vehicle: saline
[3] = endpoint: mean survival time, dose: 1.0 mg/kg/injection, schedule: Q01DX009 (ip), vehicle: saline
[4] = endpoint: mean survival time, dose: 2.0 mg/kg/injection, schedule: Q01DX009 (ip), vehicle: saline

CCCCCCCCSc1ncnc2c1ncn2CCCC
T/C (endpoint: mean survival time, dose: 125.0 mg/kg/injection, schedule: Q01DX001 (ip), vehicle: saline): 106 % of control | T/C (endpoint: mean survival time, dose: 250.0 mg/kg/injection, schedule: Q01DX001 (ip), vehicle: saline): 112 % of control | T/C (endpoint: mean survival time, dose: 500.0 mg/kg/injection, schedule: Q01DX001 (ip), vehicle: saline): 106 % of control | T/C (endpoint: mean survival time, dose: 1000.0 mg/kg/injection, schedule: Q01DX001 (ip), vehicle: saline): 101 % of control

CC1(NC(=O)N(CCCl)N=O)CCCC1
T/C (endpoint: mean survival time, dose: 12.5 mg/kg/injection, schedule: Q01DX001 (ip), vehicle: carboxymethylcellulose (CMC)): 91 % of control | T/C (endpoint: mean survival time, dose: 25.0 mg/kg/injection, schedule: Q01DX001 (ip), vehicle: carboxymethylcellulose (CMC)): 102 % of control | T/C (endpoint: mean survival time, dose: 50.0 mg/kg/injection, schedule: Q01DX001 (ip), vehicle: carboxymethylcellulose (CMC)): 100 % of control | T/C (endpoint: mean survival time, dose: 100.0 mg/kg/injection, schedule: Q01DX001 (ip), vehicle: carboxymethylcellulose (CMC)): 100 % of control | T/C (endpoint: mean survival time, dose: 125.0 mg/kg/injection, schedule: Q01DX001 (ip), vehicle: carboxymethylcellulose (CMC)): 347 % of control | T/C (endpoint: mean survival time, dose: 187.0 mg/kg/injection, schedule: Q01DX001 (ip), vehicle: carboxymethylcellulose (CMC)): 285 % of control | T/C (endpoint: mean survival time, dose: 250.0 mg/kg/injection, schedule: Q01DX001 (ip), vehicle: carboxymethylcellulose (CMC)): 276 % of control

COc1cccc(NC(=O)N(CCCl)N=O)c1
T/C (endpoint: mean survival time, dose: 18.0 mg/kg/injection, schedule: Q01DX001 (ip), vehicle: carboxymethylcellulose (CMC)): 115 % of control | T/C (endpoint: mean survival time, dose: 27.0 mg/kg/injection, schedule: Q01DX001 (ip), vehicle: carboxymethylcellulose (CMC)): 115 % of control | T/C (endpoint: mean survival time, dose: 40.0 mg/kg/injection, schedule: Q01DX001 (ip), vehicle: carboxymethylcellulose (CMC)): 121 % of control | T/C (endpoint: mean survival time, dose: 60.0 mg/kg/injection, schedule: Q01DX001 (ip), vehicle: carboxymethylcellulose (CMC)): 97 % of control

Cc1cc(C)c(NC(=O)N(CCCl)N=O)c(C)c1
T/C (endpoint: mean survival time, dose: 5.0 mg/kg/injection, schedule: Q01DX001 (ip), vehicle: other): 97 % of control | T/C (endpoint: mean survival time, dose: 7.5 mg/kg/injection, schedule: Q01DX001 (ip), vehicle: other): 98 % of control | T/C (endpoint: mean survival time, dose: 10.0 mg/kg/injection, schedule: Q01DX001 (ip), vehicle: other): 103 % of control | T/C [1]: 107 % of control and 117 % of control | T/C (endpoint: mean survival time, dose: 20.0 mg/kg/injection, schedule: Q01DX001 (ip), vehicle: other): 115 % of control | T/C (endpoint: mean survival time, dose: 128.0 mg/kg/injection, schedule: Q01DX001 (ip), vehicle: other): 101 % of control

CNC(=O)N(C)N=O
T/C (endpoint: mean survival time, dose: 112.0 mg/kg/injection, schedule: Q01DX001 (ip), vehicle: carboxymethylcellulose (CMC)): 115 % of control | T/C (endpoint: mean survival time, dose: 167.0 mg/kg/injection, schedule: Q01DX001 (ip), vehicle: carboxymethylcellulose (CMC)): 113 % of control | T/C (endpoint: mean survival time, dose: 225.0 mg/kg/injection, schedule: Q01DX001 (ip), vehicle: carboxymethylcellulose (CMC)): 161 % of control | T/C (endpoint: mean survival time, dose: 375.0 mg/kg/injection, schedule: Q01DX001 (ip), vehicle: carboxymethylcellulose (CMC)): 112 % of control

CCOC(=O)[C@H]1CCC[C@@H](NC(=O)N(CCCl)N=O)C1
T/C (endpoint: mean survival time, dose: 14.0 mg/kg/injection, schedule: Q01DX001 (ip), vehicle: other): 103 % of control | T/C (endpoint: mean survival time, dose: 21.0 mg/kg/injection, schedule: Q01DX001 (ip), vehicle: other): 104 % of control | T/C (endpoint: mean survival time, dose: 31.0 mg/kg/injection, schedule: Q01DX001 (ip), vehicle: other): 111 % of control | T/C (endpoint: mean survival time, dose: 47.0 mg/kg/injection, schedule: Q01DX001 (ip), vehicle: other): 109 % of control

CCOC1=C(N2CC2)C(=O)C(OCC)=C(N2CC2)C1=O
T/C (endpoint: mean survival time, dose: 0.25 mg/kg/injection, schedule: Q01DX009 (ip), vehicle: saline): 96 % of control | T/C [2]: 109 % of control and 93 % of control | T/C [3]: 108 % of control and 98 % of control | T/C [4]: 112 % of control | T/C (endpoint: mean survival time, dose: 4.0 mg/kg/injection, schedule: Q01DX009 (ip), vehicle: saline): 94 % of control

O=NN(CCCl)C(=O)N[C@@H]1CCC[C@@H](O)C1
T/C (endpoint: mean survival time, dose: 8.0 mg/kg/injection, schedule: Q01DX001 (ip), vehicle: saline with Tween-80): 118 % of control | T/C (endpoint: mean survival time, dose: 20.0 mg/kg/injection, schedule: Q01DX001 (ip), vehicle: saline with Tween-80): 361 % of control | T/C (endpoint: mean survival time, dose: 30.0 mg/kg/injection, schedule: Q01DX001 (ip), vehicle: saline with Tween-80): 413 % of control | T/C (endpoint: mean survival time, dose: 44.0 mg/kg/injection, schedule: Q01DX001 (ip), vehicle: saline with Tween-80): 260 % of control

O=C(Nc1ccc(C2=NCCN2)cc1)c1cccc(C(=O)Nc2ccc(C3=NCCN3)cc2)c1
T/C (endpoint: mean survival time, dose: 31.0 mg/kg/injection, schedule: Q01DX Z (ip), vehicle: water): 89 % of control

O=NN(CCCl)C(=O)NC1CSCSC1
T/C (endpoint: mean survival time, dose: 2.0 mg/kg/injection, schedule: Q01DX001 (ip), vehicle: other): 103 % of control and 98 % of control | T/C [1]: 153 % of control and 196 % of control | T/C (endpoint: mean survival time, dose: 22.0 mg/kg/injection, schedule: Q01DX001 (ip), vehicle: other): 360 % of control and 379 % of control | T/C (endpoint: mean survival time, dose: 50.0 mg/kg/injection, schedule: Q01DX001 (ip), vehicle: other): 89 % of control

N=[N+]=CC(=O)OCC(N)C(=O)O (centres undefined)
T/C (endpoint: mean survival time, dose: 43.0 mg/kg/injection, schedule: Q01DX001 (ip), vehicle: saline): 104 % of control | T/C (endpoint: mean survival time, dose: 66.0 mg/kg/injection, schedule: Q01DX001 (ip), vehicle: saline): 101 % of control

COc1cccc2c1C(=O)c1c(O)c3c(c(O)c1C2=O)C[C@@](O)(C(=O)CO)C[C@@H]3OC1CC(N)C(O)C(C)O1 (some centres undefined)
T/C (endpoint: mean survival time, dose: 0.05 mg/kg/injection, schedule: Q03HX024 (ip), vehicle: saline): 106 % of control | T/C (endpoint: mean survival time, dose: 0.1 mg/kg/injection, schedule: Q03HX024 (ip), vehicle: saline): 103 % of control | T/C (endpoint: mean survival time, dose: 0.2 mg/kg/injection, schedule: Q03HX024 (ip), vehicle: saline): 100 % of control | T/C (endpoint: mean survival time, dose: 0.4 mg/kg/injection, schedule: Q03HX024 (ip), vehicle: saline): 102 % of control | T/C (endpoint: mean survival time, dose: 0.5 mg/kg/injection, schedule: Q01DX005 (ip), vehicle: saline): 104 % of control | T/C [2]: 101 % of control | T/C (endpoint: mean survival time, dose: 0.5 mg/kg/injection, schedule: Q04DX003 (ip), vehicle: saline): 105 % of control | T/C (endpoint: mean survival time, dose: 0.8 mg/kg/injection, schedule: Q03HX024 (ip), vehicle: saline): 101 % of control | T/C (endpoint: mean survival time, dose: 1.0 mg/kg/injection, schedule: Q01DX005 (ip), vehicle: saline): 104 % of control | T/C [3]: 102 % of control | T/C (endpoint: mean survival time, dose: 1.0 mg/kg/injection, schedule: Q04DX003 (ip), vehicle: saline): 102 % of control | T/C (endpoint: mean survival time, dose: 2.0 mg/kg/injection, schedule: Q01DX005 (ip), vehicle: saline): 107 % of control | T/C [4]: 101 % of control | T/C (endpoint: mean survival time, dose: 2.0 mg/kg/injection, schedule: Q04DX003 (ip), vehicle: saline): 101 % of control | T/C (endpoint: mean survival time, dose: 4.0 mg/kg/injection, schedule: Q01DX005 (ip), vehicle: saline): 106 % of control | T/C (endpoint: mean survival time, dose: 4.0 mg/kg/injection, schedule: Q04DX003 (ip), vehicle: saline): 108 % of control | T/C (endpoint: mean survival time, dose: 8.0 mg/kg/injection, schedule: Q04DX003 (ip), vehicle: saline): 100 % of control

O=NN(CCCl)C(=O)Nc1ccc(NC(=O)N(CCCl)N=O)cc1
T/C (endpoint: mean survival time, dose: 44.0 mg/kg/injection, schedule: Q01DX009 (ip), vehicle: carboxymethylcellulose (CMC)): 186 % of control | T/C (endpoint: mean survival time, dose: 67.0 mg/kg/injection, schedule: Q01DX009 (ip), vehicle: carboxymethylcellulose (CMC)): 181 % of control | T/C (endpoint: mean survival time, dose: 100.0 mg/kg/injection, schedule: Q01DX009 (ip), vehicle: carboxymethylcellulose (CMC)): 160 % of control | T/C (endpoint: mean survival time, dose: 109.0 mg/kg/injection, schedule: Q01DX001 (ip), vehicle: carboxymethylcellulose (CMC)): 119 % of control and 124 % of control | T/C (endpoint: mean survival time, dose: 225.0 mg/kg/injection, schedule: Q01DX009 (ip), vehicle: carboxymethylcellulose (CMC)): 94 % of control | T/C (endpoint: mean survival time, dose: 264.0 mg/kg/injection, schedule: Q01DX001 (ip), vehicle: carboxymethylcellulose (CMC)): 168 % of control | T/C (endpoint: mean survival time, dose: 366.0 mg/kg/injection, schedule: Q01DX001 (ip), vehicle: carboxymethylcellulose (CMC)): 168 % of control and 182 % of control | T/C (endpoint: mean survival time, dose: 400.0 mg/kg/injection, schedule: Q01DX001 (ip), vehicle: carboxymethylcellulose (CMC)): 181 % of control | T/C (endpoint: mean survival time, dose: 550.0 mg/kg/injection, schedule: Q01DX001 (ip), vehicle: carboxymethylcellulose (CMC)): 155 % of control and 167 % of control | T/C (endpoint: mean survival time, dose: 600.0 mg/kg/injection, schedule: Q01DX001 (ip), vehicle: carboxymethylcellulose (CMC)): 172 % of control | T/C (endpoint: mean survival time, dose: 900.0 mg/kg/injection, schedule: Q01DX001 (ip), vehicle: carboxymethylcellulose (CMC)): 190 % of control | T/C (endpoint: mean survival time, dose: 1350.0 mg/kg/injection, schedule: Q01DX001 (ip), vehicle: carboxymethylcellulose (CMC)): 173 % of control

C[C@H](CN1CC(=O)NC(=O)C1)N1CC(=O)NC(=O)C1
T/C (endpoint: median survival time, dose: 8.0 mg/kg/injection, schedule: Q01DX009 (ip), vehicle: water): 107 % of control | T/C (endpoint: median survival time, dose: 16.0 mg/kg/injection, schedule: Q01DX009 (ip), vehicle: water): 115 % of control and 116 % of control | T/C (endpoint: median survival time, dose: 32.0 mg/kg/injection, schedule: Q01DX009 (ip), vehicle: water): 124 % of control | T/C (endpoint: median survival time, dose: 64.0 mg/kg/injection, schedule: Q01DX009 (ip), vehicle: water): 123 % of control | T/C (endpoint: median survival time, dose: 256.0 mg/kg/injection, schedule: Q01DX009 (ip), vehicle: water): 109 % of control and 95 % of control
